In patent US20170198011A1, “COMPOSITION FOR TREATING SEPSIS OR SEPTIC SHOCK COMPRISING THE PEPTIDE ORIGINATED FROM THE SMAD6” (Medpacto, Inc., priority 2011, published 2017):
Where no end group is shown, it is not given here. The star is where a group is joined. Palmitoyl = CCCCCCCCCCCCCCCC(=O)*

Tested on: GRK2
Experiment: LPS-induced GRK2 expression in RAW264.7 macrophages (immunoblot)
Format: cell-based, mouse
Conditions: RAW264.7 cells, 100 nM for 2 hrs, then LPS 2 hrs
Experimental: To examine how Smaducin-6 interrupts with the LPS-induced downregulation of CXCR2, the levels of G-protein-coupled receptor kinase 2 (GRK2) in human neutrophils and RAW264.7 macrophages were measured. GRK2 is upregualted by LPS, which is known to suppress the expression of CXCR2.

Smaducin-6: palmitic acid conjugated to N-terminus of the 20-amino-acid peptide of Smad6 position 422 to 441, GGRALVVRKVPPGYSIKVFD (SEQ ID NO: 1) (Palmitoyl-GGRALVVRKVPPGYSIKVFD)
LPS-induced GRK2 expression: downregualed
